Data as given in patent US20050096308A1, “Antibacterial agents” (priority 2003, published 2005).
In brackets after ≈: the same amount, converted by molar mass.

Experiments:
Experiment in all cases: Antibacterial assay (Test A), standard microtitration, MIC
Type in all cases: cell-based
E. coli MC4100 = settings: Escherichia coli; Gram Negative Bacteria; strain MC4100; read-out: Minimum Inhibitory Concentrations E. coli MC4100
Description: (§1) Test A—Antibacterial Assays
(§2) The compounds of the present invention were tested against an assortment of Gram-negative and Gram-positive organisms using standard microtitration techniques (Cohen et. al., Antimicrob., 1985;28:766; Heifetz, et. al., Antimicrob., 1974;6:124).

H. influenzae HI-3542 = settings: Haemophilus influenzae, HI3542; Gram Negative Bacteria; strain HI-3542; read-out: Minimum Inhibitory Concentrations H. influenzae HI-3542
Description: as §1, §2

M. catarrhalis BC-3531 = settings: Moraxella catarrhalis, BC3531; Gram Negative Bacteria; strain BC-3531; read-out: Minimum Inhibitory Concentrations M. catarrhalis BC-3531
Description: as §1, §2

E. faecalis MGH-2 = settings: Enterococcus faecalis, MGH2; Gram Positive Bacteria; strain MGH-2; read-out: Minimum Inhibitory Concentrations E. faecalis MGH-2
Description: as §1, §2

S pyogenes C203 = settings: Gram Positive Bacteria; strain C203; read-out: Minimum Inhibitory Concentrations S pyogenes C203
Description: as §1, §2

S. aureus UC-76 = settings: Staphylococcus aureus, UC76; Gram Positive Bacteria; strain UC-76; read-out: Minimum Inhibitory Concentrations S. aureus UC-76
Description: as §1, §2

| Structure (SMILES) | MIC (E. coli MC4100) | MIC (H. influenzae HI-3542) | MIC (M. catarrhalis BC-3531) | MIC (E. faecalis MGH-2) | MIC (S pyogenes C203) | MIC (S. aureus UC-76) |
| --- | --- | --- | --- | --- | --- | --- |
| Nc1nc(-n2c(=O)n(N)c(=O)c3cc(F)c(N4CC(O)C4)c(Cl)c32)c(F)cc1F [drawing 117] | 64 µg/mL (≈ 149 µM) | 1 µg/mL (≈ 2.33 µM) | 4 µg/mL (≈ 9.33 µM) |  |  |  |
| Cc1c(N2CC(O)C2)c(F)cc2c(=O)n(N)c(=O)n(C3CC3)c12 [drawing 118] | 1 µg/mL (≈ 3.12 µM) | 32 µg/mL (≈ 99.9 µM) | 1 µg/mL (≈ 3.12 µM) |  |  |  |
| Cc1c(N2CC(CCO)C2)c(F)cc2c(=O)n(N)c(=O)n(C3CC3)c12 [drawing 119] | 32 µg/mL (≈ 91.9 µM) | 4 µg/mL (≈ 11.5 µM) | 4 µg/mL (≈ 11.5 µM) |  |  |  |
| Nn1c(=O)c2cc(F)c(N3CC(O)(C4CC4)C3)c(Cl)c2n(C2CC2)c1=O [drawing 120] | 0.002 µg/mL (≈ 0.00525 µM) | 0.03 µg/mL (≈ 0.0788 µM) | 0.03 µg/mL (≈ 0.0788 µM) |  |  |  |
| Nn1c(=O)c2cc(F)c(N3CC(O)(c4ccc(F)cc4)C3)c(Cl)c2n(C2CC2)c1=O [drawing 121] | 64 µg/mL (≈ 147 µM) | 32 µg/mL (≈ 73.6 µM) | 16 µg/mL (≈ 36.8 µM) |  |  |  |
| CC(C)C1(O)CN(c2c(F)cc3c(=O)n(N)c(=O)n(C4CC4)c3c2Cl)C1 [drawing 122] | 64 µg/mL (≈ 167 µM) | 32 µg/mL (≈ 83.6 µM) | 32 µg/mL (≈ 83.6 µM) |  |  |  |
| Nc1nc(-n2c(=O)n(N)c(=O)c3cc(F)c(N4CC(O)C4)c(Cl)c32)c(F)cc1F [drawing 123] |  |  |  | 16 µg/mL (≈ 37.3 µM) | 16 µg/mL (≈ 37.3 µM) | 4 µg/mL (≈ 9.33 µM) |
| Cc1c(N2CC(O)C2)c(F)cc2c(=O)n(N)c(=O)n(C3CC3)c12 [drawing 124] |  |  |  | 32 µg/mL (≈ 99.9 µM) | 16 µg/mL (≈ 49.9 µM) | 1 µg/mL (≈ 3.12 µM) |
| Cc1c(N2CC(CCO)C2)c(F)cc2c(=O)n(N)c(=O)n(C3CC3)c12 [drawing 125] |  |  |  | 16 µg/mL (≈ 45.9 µM) | 16 µg/mL (≈ 45.9 µM) | 4 µg/mL (≈ 11.5 µM) |
| Nn1c(=O)c2cc(F)c(N3CC(O)(C4CC4)C3)c(Cl)c2n(C2CC2)c1=O [drawing 126] |  |  |  | 0.5 µg/mL (≈ 1.31 µM) | 0.5 µg/mL (≈ 1.31 µM) | 0.03 µg/mL (≈ 0.0788 µM) |
| Nn1c(=O)c2cc(F)c(N3CC(O)(c4ccc(F)cc4)C3)c(Cl)c2n(C2CC2)c1=O [drawing 127] |  |  |  | 16 µg/mL (≈ 36.8 µM) | 8 µg/mL (≈ 18.4 µM) | 4 µg/mL (≈ 9.2 µM) |
| CC(C)C1(O)CN(c2c(F)cc3c(=O)n(N)c(=O)n(C4CC4)c3c2Cl)C1 [drawing 128] |  |  |  | 32 µg/mL (≈ 83.6 µM) | 64 µg/mL (≈ 167 µM) | 16 µg/mL (≈ 41.8 µM) |
